Assay results published in US9492433B2, “Pharmaceutical composition for the treatment of Duchenne muscular dystrophy” (Summit Corporation Plc, priority 2012, dated 2016).
In brackets after ≈: the same amount, converted by molar mass. Like-named read-outs stand apart in the source and are kept apart here.

Key:
Format in all cases: physicochemical
[1] = Solubility in water and corn oil
[2] = Water/octanol partition coefficient (ProfilerLDA isocratic chromatography); details: octanol/water (octanol-coated column), pH 7.4; read-out: log D (water/octanol partition coefficient)
Method: The water/octanol partition coefficient was determined with a ProfilerLDA isocratic chromatography system, using an octanol-coated column with octanol-saturated mobile phases.

[3] = Gravimetric vapour sorption analysis; details: Form I
Excerpt: Form I was subjected to gravimetric vapour sorption analysis, ramping profile from 0 to 90% RH at 10% RH increments.

[4] = Solubility of C1100 Form I in pharmaceutically-acceptable solvents at 20° C. (HPLC of saturated solutions); details: organic solvent or mixture, thermodynamic from solid, Form I polymorph, 4 hours equilibration
Method: In each case, about 25 mg of drug substance was allowed to equilibrate with 250 μL of solvent over 4 hours. The resulting saturated solutions were filtered and analysed by HPLC.

solubility ([1]; oil or lipid, corn oil, very slightly soluble, read-out: Solubility in corn oil): 600 µg/mL (≈ 1.78 mM) | solubility ([1]; water, practically insoluble, read-out: Solubility in water): < 1 µg/mL | chromatographic logD [2]: 3.99 ± 0.01 | Moisture absorbed ([3]; 0 to 90% RH at 10% RH increments, up to 90% RH, reversed under dry-air conditions): no more than 0.25 % by weight | Hygroscopicity ([3]; based on vapour sorption results): not hygroscopic | solubility at 4 h ([4]; solvent 1,4-dioxane): 28400 µg/mL (≈ 84.2 mM) | solubility at 4 h ([4]; solvent 1-butanol): 350 µg/mL (≈ 1.04 mM) | solubility at 4 h ([4]; solvent 1-propanol): 790 µg/mL (≈ 2.34 mM) | solubility at 4 h ([4]; solvent 2-butanol): 850 µg/mL (≈ 2.52 mM) | solubility at 4 h ([4]; solvent 2-propanol): 470 µg/mL (≈ 1.39 mM) | solubility at 4 h ([4]; solvent Acetone): 27500 µg/mL (≈ 81.6 mM) | solubility at 4 h ([4]; solvent Acetonitrile): 5440 µg/mL (≈ 16.1 mM) | solubility at 4 h ([4]; solvent Butan-2-one): 3120 µg/mL (≈ 9.25 mM) | solubility at 4 h ([4]; solvent Chloroform): > 50000 µg/mL | solubility at 4 h ([4]; solvent Dimethylformamide): > 33800 µg/mL | solubility at 4 h ([4]; solvent Dimethylsulfoxide): 13200 µg/mL (≈ 39.1 mM) | solubility at 4 h ([4]; solvent Ethanol): 1140 µg/mL (≈ 3.38 mM) | solubility at 4 h ([4]; solvent Ethyl acetate): 8360 µg/mL (≈ 24.8 mM) | solubility at 4 h ([4]; solvent Heptane): 10900 µg/mL (≈ 32.4 mM) | solubility at 4 h ([4]; solvent Methanol): 1060 µg/mL (≈ 3.14 mM) | solubility at 4 h ([4]; solvent Tetrahydrofuran): 25900 µg/mL (≈ 76.8 mM) | solubility at 4 h ([4]; solvent Toluene): 8500 µg/mL (≈ 25.2 mM) | solubility at 4 h ([4]; solvent tert-butyl methyl ether (TBME)): 11700 µg/mL (≈ 34.6 mM)
Structure (SMILES): CCS(=O)(=O)c1ccc2oc(-c3ccc4ccccc4c3)nc2c1 [C1100, 5-(ethylsulfonyl)-2-(naphthalen-2-yl)benzo[d]oxazole]
